According to patent US11732259B2, “Peptide oligonucleotide conjugates” (Sarepta Therapeutics, Inc., priority 2011, dated 2023):
{EG3} = triethylene glycol 5' cap structure on the morpholino oligomer

Columns and labels:
[1] = tested on: RSV; details: BALB/c mice, intranasal treatment before RSV inoculation, cited from earlier work
[2] = tested on: RSV; details: cultures of two human airway cell lines (Lai, Stein et al. 2008); cited from earlier work
[3] = type: in vivo, mouse
Protocol: Mice were treated with the conjugates described in Example 30, and KIM-1 levels, BUN levels and survival rate were determined according to the general procedures described in Example 32 below and known in the art. […]. The day of dosing on the study was designated as Study Day 1. Conjugate was administered via tail vein as a slow push bolus (˜5 seconds). All animals were dosed over two days. Groups 1-8 were dosed on the first day and Groups 9-16 were dosed on the second day. Treatment Groups (TG) 13-16 were dosed per the table above. […] The first 2 TG of each conjugate were dosed per the table above. If all animals in 100 mg/kg group died then the remaining TGs of that test article would not be dosed and the study would end. If at least one animal survived 2 hours post-dose in the 100 mg/kg group, then the 150 mg/kg group was dosed. If all animals in the 150 mg/kg group died then the remaining TGs of that test article would not be dosed and the study would end. […]
Any animal showing signs of distress, particularly if death appeared imminent was humanely euthanized according to Numira Biosciences Standard Operating Procedures. Body weights were recorded on the day after arrival, the day of dosing, and the day of necropsy. Detailed clinical observations were conducted and recorded at 0 minutes, 15 minutes, and 2 hours post-dose to assess tolerability of injections.

[4] = tested on: dystrophin mRNA exon 23; experiment: Exon 23 skipping in MDX mice, end-point PCR on muscle RNA
Protocol: MDX mice were dosed once (50 mg/kg) by tail vein injection with one of the following conjugates:
One week post-injection, the MDX mice were sacrificed and RNA was extracted from various muscle tissues. End-point PCR was used to determine the relative abundance of dystrophin mRNA containing exon 23 and mRNA lacking exon 23 due to antisense-induced exon skipping. Percent exon 23 skipping is a measure of antisense activity in vivo.

[5] = tested on: KIM-1; type: in vivo, mouse; details: Example 32, FIG. 10; C57/BL6 mice, single i.v. tail vein injection, kidney qRT-PCR vs GAPDH
Protocol: Mice were treated with the conjugates described in Example 30, and KIM-1 levels, BUN levels and survival rate were determined according to the general procedures described in Example 32 below and known in the art. […]. The right and left kidneys were collected. Tissues were collected within minutes or less of euthanasia. All instruments and tools used were changed between treatment groups. All tissues were flash frozen and stored at <−70° C. as soon as possible after collection.
Kidney injury marker data was obtained as follows. RNA from mouse kidney tissue was purified using Quick Gene Mini80 Tissue Kit SII (Fuji Film). Briefly, approximately 40 mg of tissue was added to 0.5 ml lysis buffer (5 μl […] in 0.5 ml lysis buffer) in a MagnaLyser Green Bead vial (Roche) and homogenized using MagNA Lyser (Roche) with 2 sets of 3×3800 RPM and 3 sets of 1×6500 RPM.
Samples were cooled on ice 3-4 minutes between each low speed set and between each higher speed run. Homogenates were centrifuged 5 minute at 400×g at room temperature. The homogenate was immediately processed for RNA purification according to the Quick Gene Mini80 protocol. […] Total RNA was quantitated with a NanoDrop 2000 spectrophotometer (Thermo Scientific). […]
Analysis was performed using ΔΔCt method. […] Fold change range calculated: 2^−(ΔΔCt+SD) to 2^−(ΔΔCt-SD). […]

[6] = tested on: exon 23 of the dystrophin gene; details: in vivo; cited from earlier work

TAATGGGATCCATTTTGTCCC (all phosphorodiamidate morpholino (PMO); peptide-conjugated morpholino (PPMO), peptide not given here) [RSV-AUG-2, peptide conjugated PMO (PPMO) targeting the translation start-site region of RSV L mRNA]
Reduction in viral titer in lung tissue ([1]; day 5 postinfection): 1.2 log10 | Pulmonary inflammation ([1]; day 7 postinfection): attenuated | Reduction of viral titers [2]: > 2.0 log10

5′-EG3-M23D-G(R)8 [NG-11-0216]
Survival rate ([3]; Example 31, FIG. 7B, compared with the XB linked conjugate / amongst the arginine polymers): least tolerated of the arginine polymers

5′-EG3-M23D-G(R)6 [NG-11-0009]
Percent exon 23 skipping, diaphragm ([4]; dosed once 50 mg/kg tail vein, one week post-injection, diaphragm (FIGS. 5B, 6B), amongst the arginine series): highest efficacy | Percent exon 23 skipping, quadriceps ([4]; dosed once 50 mg/kg tail vein, one week post-injection, quadriceps (FIGS. 5A, 6A), amongst the arginine series): highest efficacy | Doses at which all mice survived ([3]; Example 31, data not shown): up to 400 mg/kg | KIM concentrations [5]: lowest

5′-EG3-M23D-BX(RXRRBR)2 (GGCCAAACCTCGGCTTACCTGAAAT; all phosphorodiamidate morpholino (PMO), 5' {EG3}; morpholino, carrier peptide BX(RXRRBR)2 conjugated at 3' end) [AVI-5225, known peptide-morpholino oligomer conjugate used as comparator]
Dose response of exon 23 skipping ([4]; one week post-treatment, AVI-5225 compared with the other conjugates): similar | Activity in the MDX mouse model for DMD [6]: activity
